Series [1] in a line: Pharmacokinetic parameters in lung and plasma after inhalational administration (HPLC). On the procedure:
After 8 min of inhalation treatment, BALB/c nude mice were euthanized at various time points and drug levels were analyzed by HPLC in plasma and lung tissues.

The nature of series [2]: Drug levels in lungs and plasma after inhalation vs. oral gavage. It counts as in vivo, mice.
The test system of another series is A549 xenografts. Briefly: A549 xenografts in nude mice, PS V and curcumin alone and combined. The settings on record: for inhibition of tumor growth (in words): duration of the study, to day 36; for average tumor volume: end of the study (day 36), PS V 200 mg/kg/d, curcumin 500 mg/kg/d, control 521±76 mm^3; for reduction in tumor weight: PS V p=0.06, PS V plus curcumin p<0.01. It counts as in vivo, female nude mice. On the procedure:
Polymeric nanoparticles of poly(c-caprolactone) (11000)-polyethylene glycol (5000) with entrapped curcumin were prepared according to the nanopercipitation-solvent displacement method. […] Then, the mice were inoculated subcutaneously on both flanks with […] cells (2×10^6 each). The treatment was resumed one day after tumor implantation and continued daily until the end of the study.

The next series has as its system human cancer cells. The series is described as follows: Cytotoxicity to human cancer cells compared with metabolites. In kind it is cell-based.
Series [3] has as its system pre-clinical models of lung cancer. Conditions: cited from earlier work.
The mark [4] stands for this setting: plasma, after 8 min of inhalation treatment.
Setting [5] is: mouse, in vivo, inhaled or intranasal.

In general, Tmax refers to the time from dosing to the highest level.

As to `CC1=C(CC(=O)O)c2cc(F)ccc2/C1=C\c1ccc([S+](C)[O-])cc1` (centres unmarked) [Sulindac, sulindac], the Tmax in series [1] (lung, after 8 min of inhalation treatment) is on record as 0 h; in series [1] (setting [4]), 0 h. This molecule also showed an AUC in series [1] (setting [4]) of 49.5.

As for `CCOP(=O)(OCC)OCCCCOC(=O)CC1=C(C)/C(=C/c2ccc([S+](C)[O-])cc2)c2ccc(F)cc21` (centres unmarked) [PS V, phospho-sulindac], in series [2] (after inhalation and oral administration), the “PS levels in plasma” value is “undetectable”. For the same molecule, in series [2] (inhalation 6.5 mg/kg vs oral 150 mg/kg), the “total drug levels (PS V plus its metabolites) in lungs, inhalation compared to oral” value is reported as “significantly higher”. Besides, in the series with A549 xenografts, the “inhibition of tumor growth (in words)” value is given as “small inhibition of tumor growth” and the average tumor volume is 419±36 mm^3. Moreover, the “reduction in tumor volume” value in the series with A549 xenografts (end of the study, vs control) is on record as 19.6%. In addition, the “reduction in tumor weight” value in the series on A549 xenografts (vs control) turned out to be 27%. For the same molecule, the “cytotoxicity relative to sulindac, sulindac sulfide XI and sulindac sulfone XII” value in the series on human cancer cells is “more cytotoxic”.

In series [1] (setting [5]), `CSc1ccc(/C=C2/C(C)=C(CC(=O)O)c3cc(F)ccc32)cc1` [Sulindac sulfide XI, sulindac sulfide] yielded an AUC of 18.9.

In series [1] (setting [5]), `CC1=C(CC(=O)O)c2cc(F)ccc2/C1=C\c1ccc(S(C)(=O)=O)cc1` [Sulindac sulfone XII, sulindac sulfone] showed an AUC of 57.5 and a Cmax of 4.6 nmol/g.

For `COc1cc(/C=C/C(=O)CC(=O)/C=C/c2ccc(O)c(OC)c2)ccc1O` [curcumin], the “efficacy as a single agent” value in series [3] was < 30%. Besides, in the series with A549 xenografts, the “inhibition of tumor growth (in words)” value is given as “ineffective” and the average tumor volume turned out to be 599±98 mm^3. Also, the “reduction in tumor weight” value in the series with A549 xenografts (vs control) was “not”.

The values above are taken from patent US20140088044A1, “PRODUCT COMPRISING A NICOTINE-CONTAINING MATERIAL AND AN ANTI-CANCER AGENT” (priority 2012, published 2014).
